Our source for the IC50 values is US4595700A, “Thiol based collagenase inhibitors” (G. D. Searle & Co., priority 1985, dated 1986).

pIC50: −log10 of the molar value. “And” between values parts separate entries of the source, which are not always exact repeats. Equal entries are not always repeated.

The target in one assay is T1, Human Rheumatoid Synovial collagenase (Homo sapiens, UniProt P03956).
T1 construct: from tissue; host or cells: rheumatoid synovium (tissue or synovial cell culture not distinguished)
T1 sequence (P03956 100-469): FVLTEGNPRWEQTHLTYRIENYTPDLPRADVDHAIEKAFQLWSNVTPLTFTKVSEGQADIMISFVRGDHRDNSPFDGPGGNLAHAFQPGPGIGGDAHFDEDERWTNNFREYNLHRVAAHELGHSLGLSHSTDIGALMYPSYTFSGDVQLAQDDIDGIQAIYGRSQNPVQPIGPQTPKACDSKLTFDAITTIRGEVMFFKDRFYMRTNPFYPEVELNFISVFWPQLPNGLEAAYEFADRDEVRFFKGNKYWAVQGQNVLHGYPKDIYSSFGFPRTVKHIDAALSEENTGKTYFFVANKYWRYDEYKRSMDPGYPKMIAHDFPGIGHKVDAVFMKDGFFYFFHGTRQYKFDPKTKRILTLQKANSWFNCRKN
As to the kind of experiment: inhibition of collagenase (acetyl 14C collagen digestion, Cawston and Barrett). The settings on record: Table 2; 37° C., 16 hours, native acetyl 14C collagen, pH 7.6; read-out: IC50 (μM) Human Rheumatoid Synovial collagenase. The class given is biochemical. The method, then:
This was determined following the procedure of Cawston and Barrett, Anal. Biochem., 99, 340-345 (1979) whereby the 1 mM of the inhibitor being tested or dilutions thereof are incubated at 37° C. for 16 hours with native collagen and collagenase (buffered with Tris HCl--CaCl2; pH 7.6). The collagen is acetyl ^14 C collagen. The samples are centrifuged to sediment undigested collagen and an aliquot of the radiactive supernatant removed for assay on a scintillation counter as a measure of hydrolysis. The collagenase activity in the presence of 1 mM inhibitor, or a dilution thereof, is compared to activity in a control devoid of inhibitor and the results reported as that inhibitor concentration effecting 50% inhibition of the collagenase.
As for `CNC(=O)[C@H](Cc1ccc(OC)cc1)NC(=O)C(CC(C)C)C(C)S` (single isomer, unassigned) [Example 1 Isomer A1, N-[2-(1-Mercaptoethyl)-4-methylpentanoyl]-O-methyl-L-tyrosine N-Methylamide], the half-maximal inhibitory concentration (IC50) amounted to 19 µM.

As to `CNC(=O)[C@H](Cc1ccc(OC)cc1)NC(=O)C(CC(C)C)C(C)S` (single isomer, unassigned) [Example 1 Isomer A2, N-[2-(1-Mercaptoethyl)-4-methylpentanoyl]-O-methyl-L-tyrosine N-Methylamide], the IC50 worked out at 13 µM.

Regarding `CNC(=O)[C@H](Cc1ccc(OC)cc1)NC(=O)C(CC(C)C)C(C)S` (single isomer, unassigned) [Example 1 Isomer B1, N-[2-(1-Mercaptoethyl)-4-methylpentanoyl]-O-methyl-L-tyrosine N-Methylamide], the IC50 came out at 0.22 µM.

For the molecule `CNC(=O)[C@H](Cc1ccc(OC)cc1)NC(=O)C(CC(C)C)C(C)S` (single isomer, unassigned) [Example 1 Isomer B2, N-[2-(1-Mercaptoethyl)-4-methylpentanoyl]-O-methyl-L-tyrosine N-Methylamide], the half-inhibitory concentration (IC50) came out at 1.5 µM.

In the case of `CNC(=O)[C@H](Cc1ccc(OC)cc1)NC(=O)C(CC(C)C)C(S)c1ccccc1` (single isomer, unassigned) [Example 2 Isomer A1, N-[2-(1-S-Mercaptobenzyl)-4-methylpentanoyl]-O-methyl-L-tyrosine-N-methylamide], the IC50 came out at 0.27 µM.

On to `CNC(=O)[C@H](Cc1ccc(OC)cc1)NC(=O)C(CC(C)C)C(S)c1ccccc1` (single isomer, unassigned) [Example 2 Isomer A2, N-[2-(1-S-Mercaptobenzyl)-4-methylpentanoyl]-O-methyl-L-tyrosine-N-methylamide], for which the IC50 was determined as 1.71 µM.

`CNC(=O)[C@H](Cc1ccc(OC)cc1)NC(=O)C(CC(C)C)C(S)c1ccccc1` (single isomer, unassigned) [Example 2 Isomer B1, N-[2-(1-S-Mercaptobenzyl)-4-methylpentanoyl]-O-methyl-L-tyrosine-N-methylamide]: the half-maximal inhibitory concentration (IC50) was 3.9 µM.

As for `CNC(=O)[C@H](Cc1ccc(OC)cc1)NC(=O)C(CC(C)C)C(S)c1ccccc1` (single isomer, unassigned) [Example 2 Isomer B2, N-[2-(1-S-Mercaptobenzyl)-4-methylpentanoyl]-O-methyl-L-tyrosine-N-methylamide], the IC50 worked out at 12 µM.

In the case of `CNC(=O)[C@H](Cc1ccc(OC)cc1)NC(=O)C(CC(C)C)C(S)C(C)C` (single isomer, unassigned) [Example 3 Isomer A, N-(2-(1-Mercapto-2-methylpropyl)-4-methylpentanoyl)-O-methyl-L-tyrosine N-Methyl amide], the IC50 was determined as 2 µM.

For `CNC(=O)[C@H](Cc1ccc(OC)cc1)NC(=O)C(CC(C)C)C(S)C(C)C` (single isomer, unassigned) [Example 3 Isomer B, N-(2-(1-Mercapto-2-methylpropyl)-4-methylpentanoyl)-O-methyl-L-tyrosine N-Methyl amide], the IC50 worked out at 5 µM.

On to `CCCCCCC(C(=O)N[C@@H](Cc1ccc(OC)cc1)C(=O)NC)C(C)S` (single isomer, unassigned) [Example 4 Isomer A, N-[2-(1-mercaptoethyl)octanoyl]-O-methyl-L-tyrosine N-methylamide], for which the half-maximal inhibitory concentration (IC50) is 5 µM.

On to `CCCCCCC(C(=O)N[C@@H](Cc1ccc(OC)cc1)C(=O)NC)C(C)S` (single isomer, unassigned) [Example 4 Isomer B, N-[2-(1-mercaptoethyl)octanoyl]-O-methyl-L-tyrosine N-methylamide], for which the IC50 was 140 µM.

On to `CCCCC(C(=O)N[C@@H](Cc1ccc(OC)cc1)C(=O)NC)C(C)S` (single isomer, unassigned) [Example 5 Isomer A, N-[2-(1-Mercaptoethyl)hexanoyl]-O-methyl-L-tyrosine N-methyl amide], for which the concentration for half-maximal inhibition (IC50) worked out at 0.2 µM.

For the molecule `CCCCC(C(=O)N[C@@H](Cc1ccc(OC)cc1)C(=O)NC)C(C)S` (single isomer, unassigned) [Example 5 Isomer B, N-[2-(1-Mercaptoethyl)hexanoyl]-O-methyl-L-tyrosine N-methyl amide], the IC50 worked out at 1 µM.

As for `CNC(=O)[C@@H](NC(=O)C(CC(C)C)C(C)S)[C@@H](C)OCc1ccccc1` (single isomer, unassigned) [Example 6 Isomer A, N-[2-(1-Mercaptoethyl)-4-methylpentanoyl]-O-benzyl-L-threonine N-Methylamide], the concentration for half-maximal inhibition (IC50) was 0.45 µM.

With `CNC(=O)[C@@H](NC(=O)C(CC(C)C)C(C)S)[C@@H](C)OCc1ccccc1` (single isomer, unassigned) [Example 6 Isomer B, N-[2-(1-Mercaptoethyl)-4-methylpentanoyl]-O-benzyl-L-threonine N-Methylamide], the IC50 was found to be 4.9 µM.

Take `CCCCNC(=O)[C@H](C)NC(=O)C(CC(C)C)C(C)S` (single isomer, unassigned) [Example 7 Isomer A, N-[2-(1-S-Mercaptoethyl)-4-methyl-pentanoyl]-L-alanine N-butylamide]: the IC50 is 4.9 µM.

With `CCCCNC(=O)[C@H](C)NC(=O)C(CC(C)C)C(C)S` (single isomer, unassigned) [Example 7 Isomer B, N-[2-(1-S-Mercaptoethyl)-4-methyl-pentanoyl]-L-alanine N-butylamide], the IC50 turned out to be 2 µM.

Regarding `CCCCNC(=O)[C@H](C)NC(=O)C(CC(C)C)C(C)S` (single isomer, unassigned) [Example 7 Isomer C, N-[2-(1-S-Mercaptoethyl)-4-methyl-pentanoyl]-L-alanine N-butylamide], the IC50 worked out at 1.2 µM.

Staying with this assay, now noted: Table 3; all compounds S stereochemistry at c; 37° C., 16 hours, pH 7.6; read-out: IC50 against human rheumatoid sinovial collagenase.
For the molecule `CNC(=O)[C@H](Cc1ccc(OC)cc1)NC(=O)C(CC(C)C)C(C)S` (single isomer, unassigned) [Example 1 Isomer B1, N-[2-(1-Mercaptoethyl)-4-methylpentanoyl]-O-methyl-L-tyrosine N-Methylamide], the pIC50 is 6.66.

In the case of `CNC(=O)[C@@H](NC(=O)C(CC(C)C)C(C)S)[C@@H](C)OCc1ccccc1` (single isomer, unassigned) [Example 6 Isomer A, N-[2-(1-Mercaptoethyl)-4-methylpentanoyl]-O-benzyl-L-threonine N-Methylamide], the pIC50 was 6.35.

As to `CCCCNC(=O)[C@H](C)NC(=O)C(CC(C)C)C(C)S` (single isomer, unassigned) [Example 7 Isomer C, N-[2-(1-S-Mercaptoethyl)-4-methyl-pentanoyl]-L-alanine N-butylamide], the pIC50 is 5.92.

Take `CNC(=O)[C@H](Cc1ccc(OC)cc1)NC(=O)C(CS)CC(C)C` (some centres unmarked) [reference compound]: the negative logarithm of the IC50 (pIC50) was 5.44.

As to `CCCCNC(=O)[C@H](C)NC(=O)C(CS)CC(C)C` (some centres unmarked) [reference compound], the pIC50 is 4.43.

In the case of `CNC(=O)[C@@H](NC(=O)C(CS)CC(C)C)C(C)OCc1ccccc1` (some centres unmarked) [reference compound], the negative-log IC50 (pIC50) is 5.32.

The same assay, now with this note: Table 3 footnote 4; individual determinations; read-out: IC50, individual results (footnote 4: mean of two results).
Turning to `CCCCNC(=O)[C@H](C)NC(=O)C(CS)CC(C)C` (some centres unmarked) [reference compound], the pIC50 is 4.60 and 4.36.

In general, IC50 refers to the midpoint of a concentration-inhibition curve. Broadly, the pIC50 is −log10 of the IC50, conventionally taken in molar units.
